Patent publication US6552053B2, “Controlling attention and memory by altering neuronal carbonic anhydrase activity” (The United States of America as represented by the …, priority 2000, dated 2003)
Entries after “also recorded” stand apart in the source; their conditions may differ. Counter-ions that a name gives are not always drawn.

How the values were obtained:
RyR = conditions: cited from earlier work
[1] = test system: BAS-CA1 synapses of CA1 pyramidal cells; assay: BAS-CA1 postsynaptic potentials of CA1 pyramidal cells (Example 2); assay type: cell-based, rat; conditions: for increase in evoked BAS-CA1 IPSPs: agent injected into the recorded pyramidal cell; for effect on CE action on BAS-CA1 PSP: agent injected into the recorded pyramidal cell before/with CE; for effect of ACET itself on BAS-CA1 IPSPs / effect on CE action on the synaptic response: ACET 10 μM
Protocol: Chemicals. Cloned CE (without the C-terminal P-loop) containing a His9 leader sequence was expressed in BL21 (DE3) Escherichia coli cells and purified by repeated affinity chromatography on Ni^2+-charged His-Bind columns (Novagen). […] Heat-inactivated proteins (100° C. for 5 min) were used as control.
Electrophysiology. […] CA1 pyramidal cells were recorded intracellularly with sharp electrodes. Intracellular microelectrode recording rather than whole-cell clamp avoids immediate internal perfusion of the test proteins and agents into the cells and marked run-down of γ-aminobutyrate (GABA)-evoked currents. […] A bipolar stimulating electrode (Teflon-insulated PtIr wire 25 μm in diameter) was also placed in the stratum pyramidale, within 200 μm from the recording electrode, for stimulation of basket interneurons (BAS) (50 μA). In some experiments, an additional bipolar electrode was placed in the stratum radiatum to stimulate the Schaffer collateral pathway (SCH). CA1 neurons with stable resting membrane potential more negative than −70 mV were studied. […] Signals were amplified with AxoClamp-2B amplifier and digitized and stored by using a DigiData 1200 with the PCLAMP6 data collection and analysis software (Axon Instruments) and a Pentium PC computer. Experiments in which >20% variations in the evoked inhibitory postsynaptic potentials (IPSPs) during a 10 min control period occurred were discarded. Percent baseline PSP at each minute was calculated by dividing its value by baseline PSP then multiplying the result by 100. Baseline PSP was the mean of 10 min before treatments in each cell. A negative sign was added to indicate its inhibitory nature so that −100% is baseline IPSP and a positive value indicates an excitatory response. Differences were considered significant at P<0.05.

[2] = test system: hippocampal CA1 field potential; assay: CA1 field potential θ oscillation in hippocampal slices; assay type: cell-based, rat
Protocol: (§1) Hippocampal slice electrophysiology. CA1 field potentials were recorded with glass microelectrodes filled with an artificial cerebrospinal fluid solution (ACSF; see below). […] Whole slices were used unless otherwise indicated. […] Signals were amplified with AxoClamp-2B amplifier, digitized, stored, and analyzed using DigiData 1200 with P-Clamp6 software (Axon Instruments). Frequency and amplitude values of oscillation were taken from an average of five consecutive traces, all triggered at the same level of the same phase. Capacitance was optimally adjusted during discontinuous current-clamp mode before and after cell penetration to neutralize capacitance and reduce overshoot/undershoot errors. Discontinuous single-electrode voltage-clamp mode was used for voltage-clamping, employing a sampling rate of 3.0-5.0 kHz (30% duty cycle). Gain was usually set at 6-8 nA·mV^−1, slightly below the maximum value without causing overshoot or instability in the step response to a repetitive 10 mV step command. Bipolar stimulating electrodes (Teflon-insulated PtIr wire with 25 μm in diameter) were placed in s. pyramidale, within 200 μm, from the recording electrode, for stimulation of interneurons (50 μA, 50 μA) in the pyramidale layer. In some cases, the position of the stimulating electrodes was slightly varied within the CA1 cell layer to obtain monophasic postsynaptic responses. […] In some experiments, an additional stimulating electrode was placed in the stratum radiatum to stimulate the Schaffer collateral pathway (Sch). Experiments in which >20% variations in the evoked IPSP magnitudes occurred during the 10-min control period were discarded.

[3] = test system: hippocampal CA1 pyramidal cells; assay: Intracellular recording of CA1 pyramidal cells: membrane potential θ, discharge, input resistance; assay type: cell-based, rat
Protocol: as §1

[4] = rat, intraperitoneal dose; cited from earlier work
[5] = test system: GABAergic inputs to hippocampal CA1 pyramidal cells; assay: Evoked GABAergic postsynaptic responses (IPSPs) of CA1 pyramidal cells; assay type: cell-based, rat
Protocol: as §1

[6] = Morris watermaze spatial memory task
[7] = test system: SCH-CA1 excitatory postsynaptic potentials; assay: Schaffer collateral (SCH)-CA1 excitatory postsynaptic potentials; assay type: cell-based, rat
Protocol: Hippocampal slice electrophysiology. CA1 field potentials were recorded with glass microelectrodes filled with an artificial cerebrospinal fluid solution (ACSF; see below). Male Sprague-Dawley rats ([…]) were decapitated, and the brains were removed and cooled rapidly in an ACSF solution (˜4° C.), bubbled continuously with 95% O2-5% CO2. Hippocampi were sliced ([…]), placed in oxygenated ACSF (in mM: 124 NaCl, 3 KCl; 1.3 MgSO4; 2.4 CaCl2; 26 NaHCO3; 1.25 NaH2PO4; and 10 glucose), and perfused (2 ml/min) with the oxygenated ACSF in an interface chamber at 30-31 ° C. Whole slices were used unless otherwise indicated. CA1 pyramidal cells were recorded intracellularly (Sun, M. -K., Nelson, T. J., Xu, H., and Alkon, D. L. Calexcitin transformation of GABAergic synapses: from excitation filter to amplifier. Proc. Natl. Acad. Sci. USA 96: 7023-7028, 1999, for cell labeling) with sharp electrodes (3M KAc; tip resistance: 60-120 M; to prevent “run-down” of GABAergic responses in whole-cell recordings due to wash out of intracellular factors). […] Signals were amplified with AxoClamp-2B amplifier, digitized, stored, and analyzed using DigiData 1200 with P-Clamp6 software (Axon Instruments). […]
Electrophysiology. […] CA1 pyramidal cells were recorded intracellularly with sharp electrodes. […]

[8] = test system: SCH-CA1 excitatory postsynaptic potentials; conditions: kynurenate 500 μM (Sun et al. 1999); cited from earlier work
[9] = 30 min, listed as Acetazolamide
[10] = kynurenate 500 μM, 20-30 min, CCH-induced θ
[11] = CA3 and dentate gyrus dissected away

## N.N.N.N.N.N.N.N.N.N.N.N.N.N.[Cl-].[Cl-].[Cl-].[Cl-].[Cl-].[Cl-].[O-2].[O-2].[Ru+3].[Ru+3].[Ru+4] [RR, ruthenium red]
RyR
  IC50: nanomolar range
[1]
  increase in evoked BAS-CA1 IPSPs: 16.3%±4.0%
  effect on CE action on BAS-CA1 PSP: effectively blocked

## CN1[C@@H]2CC[C@H]1C[C@@H](OC(=O)C(CO)c1ccccc1)C2 (stereo partly drawn) [atropine sulfate]
[2]
  effect on CCH-induced θ field activity: blocked

## CC(=O)Nc1nnc(S(N)(=O)=O)s1 [ACET, acetazolamide]
[3]
  effect on calexcitin-induced intracellular θ activity: did not induce; also recorded: prevented
  induction of intracellular θ activity by CCH in presence of ACET: nor intracellular θ activity (n=10; FIG. 4B3) was induced
[4]
  time to peak concentration in the blood: ≤ 1 h
[5]; bath ACET 1 μM, CCH 50 μM
  evoked IPSP in the presence of ACET and CCH: −7.7±1.0 mV
[6]; ACET 5 mg/0.5 ml/day ip (14-18 mg/kg), 65-70 min before first trial
  reduction in escape latency during training trials vs saline group: strikingly smaller reduction
[6]; ACET 5 mg/0.5 ml/day ip during training
  quadrant preference 24 h after last training trial: no preference to a particular quadrant
[6]; during the experimental periods
  signs of discomfort or abnormal behaviors: no rats showed any apparent sign of discomfort or abnormal behaviors
[6]; single ACET injection (5 mg/0.5 ml) 24 h after last training trial of trained rats, test 65-70 min later
  memory retrieval: quadrant 4 preference vs saline control rats: no significant difference
[1]; ACET 1 μM
  effect on CE-induced synaptic transformation: eliminates
[1]; ACET 1 μM, 30 min, vs −100% control value
  BAS-CA1 IPSPs 30 min after CE injection in the presence of ACET: −99.2±3.5%
[1]; 30 min
  effect of ACET itself on BAS-CA1 IPSPs: sufficient to transform the BAS-CA1 IPSPs
  effect on CE action on the synaptic response: abolishing effects of CE
[1]; [9]
  effect of ACET itself on BAS-CA1 IPSPs: sufficient to maintain IPSPs
  effect on CE action on the synaptic response: eliminating transformative effects of calexcitin

## NS(=O)(=O)c1nnc(NS(=O)(=O)c2ccccc2)s1 [benzolamide]
[5]; intracellular application of benzolamide (0.1 mM in electrode)
  effect on CCH-induced reversed GABAergic responses: prevented

## O=C(O)c1cc(=O)c2ccccc2[nH]1 [KYN, kynurenic acid]
[5]; kynurenate 500 μM
  effect on evoked IPSPs: not altered
[7]; KYN 500 μM, 20 min
  elimination of SCH-CA1 EPSPs: > 90%
[2]; [10]
  θ oscillation frequency in presence of kynurenate: did not change
  θ oscillation magnitude in presence of kynurenate: slightly reduced
[8]
  excitatory postsynaptic responses of CA1 pyramidal cells to SCH stimulation: effectively abolished
[1]; KYN 500 μM
  BAS-CA1 IPSP in the presence of KYN: −8.1±0.4 mV
  reversal potential of BAS-CA1 PSPs in the presence of KYN: −78.9 mV
[1]; KYN 500 μM, 20 min
  effect on evoked BAS-CA1 IPSPs: does not alter

## C[N+](C)(C)CCOC(N)=O [CCH, carbachol]
[3]; CCH
  input resistance when θ activity became evident: 79.2±1.6 MΩ
[3]; CCH 50 μM
  θ oscillation of membrane potential (intracellular θ): 7.8±1.1 mV
[3]; CCH, 5-min observing period
  averaged discharge rate: 2.7±0.3 spikes/s
[5]; 30 min after CCH application, pre-CCH membrane potential maintained
  GABAergic postsynaptic response after CCH: +5.1±0.4 mV
[5]; during CCH 50 μM
  reversal potential of GABAergic postsynaptic responses: −68.4±2.8 mV
[5]; in the presence of CCH, θ frequency stimulation
  response of pyramidal cells to stimulation of GABAergic inputs: elicited instantly phase-locked firing of pyramidal cells
[5]; voltage clamp, CCH 50 μM
  evoked GABAergic current after CCH (inward current): 0.19±0.05 nA
[7]; CCH
  single-pulse SCH stimulation-evoked excitatory postsynaptic potential: not altered
[2]; [11]
  CCH-induced θ activity amplitude in CA1 minislices: 0.73±0.04 mV
  CCH-induced θ activity frequency in CA1 minislices: 7.7±0.9 Hz
[2]; CCH 50 μM, 20 min
  duration of θ field potential (post-CCH recording period): ~3 h
[2]; CCH 50 μM, 20 min, bath applied, whole slices
  θ field potential peak amplitude: 0.75±0.03 mV
[2]; CCH 50 μM, 20 min, whole slices
  θ field potential frequency: 7.8±0.8 Hz

## O=C(O)CN(CC(=O)O)c1ccccc1OCCOc1ccccc1N(CC(=O)O)CC(=O)O [BAPTA, 1,2-bis(2-aminophenoxy)ethane-N,N,N′,N′-tetraacetic acid]
[1]
  increase in evoked BAS-CA1 IPSPs: 17.4%±3.9%
  effect on CE action on BAS-CA1 PSP: not induced; also recorded: blocking
